Results as given in patent publication US20100125059A1, “1-BIARYLAZETIDINONE DERIVATIVE” (Teijin Pharma Limited, priority 2007, published 2010).
Read-outs that look alike come from different tables or passages of the source.

Assays:
[1] = test system: hamsters fed a high cholesterol diet; experiment: Measurement of lipid lowering effect in hamsters fed a high cholesterol diet; format: in vivo, Male Golden Syrian hamsters; conditions: Mesocricetus auratus, po, 168 h, gavage once daily, 7 days
Summary of the method: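 Male Golden Syrian hamsters (6/group) on 0.5% cholesterol diet, dosed by gavage once daily in corn oil at 0.01 to 10 mg/kg; serum and liver sampled 4 h after last dose. TC, TG and LDL-C measured enzymatically; effects expressed as % suppression versus control and normal-diet groups.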

Caco-2 cells = experiment: Cholesterol absorption inhibition assay (in vitro), [14C] cholesterol mixed micelles; format: cell-based; conditions: Homo sapiens, 24 hours, read-out: cholesterol absorption inhibitory activity; for inhibition at 10 µM: concentration of 10 μM; for inhibition at 12.5 µM: concentration of 12.5 μM
Method: This assay measures cholesterol absorption inhibitory activity by adding mixed micelles containing [^14C] cholesterol to cells and measuring cholesterol taken in the cells as oleic acid cholesteryl ester. The assay is conducted after Caco-2 cells are seeded on multi-well plates and cultured (culture medium: DMEM containing 10% fetal bovine serum, 1% non-essential amino acids, 1% penicillin, and 1% streptomycin) for 2 weeks. To each well, the micelle solution (in an amount required to provide the following final concentrations: 600 μM of sodium oleate, 50 μM of phosphatidyl choline, 5 mM of sodium taurocholate, 2.5 μM of cholesterol, and 2.5 μM of [^14C] cholesterol) and a test compound solution (in an amount required to provide the final concentration of 0.5 to 25 μM) or a solvent as a control are added, and incubation is started at 37° C. 24 hours later, the culture medium is removed, and the lipid component is extracted with hexane/2-propanol (3:2, v/v) and applied onto thin-layer silica gel plates. After drying, each plate is eluted with a mixture of hexane, diethyl ether, and acetic acid in a ratio of 83:16:1. The plates are photoexposed on imaging plates and analyzed using BAS-2500 (FUJIFILM). The amounts of light exposure of the areas corresponding to the cholesteryl ester are calculated. Background is measured using a blank space of the plate. Inhibition rates are calculated using values obtained by subtracting the background values from both values of the control and the test sample, respectively, in accordance with the following equation. A test value is calculated as a percentage (%) with respect to the control.
In the Equation 1, A is the control group, BG is a background, and B is the test compound.
The following results were obtained from the measurement by this method on cholesterol absorption inhibitory activity of the compounds of the present invention. The following results were obtained by the evaluation using concentrations of 10 μM and/or 12.5 μM.

[2] = read-out: serum TC lowering effect (suppression rate of an increase in serum TC concentration)
[3] = read-out: serum TG lowering effect (serum TG lowering rate)
[4] = read-out: liver TC lowering effect (suppression rate of an increase in liver TC concentration)
[5] = read-out: serum LDL-C lowering effect (suppression rate of an increase in serum LDL-C concentration)

## COc1cncc(-c2ccc(N3C(=O)[C@H](SC[C@H](O)c4ccc(F)cc4)[C@H]3c3ccc(O)cc3)cc2)c1 [Example 50, (3R,4R)-3-[(2R)-2-(4-fluorophenyl)-2-hydroxyethylthio]-4-(4-hydroxyphenyl)-1-[4-(5-methoxypyridin-3-yl)phenyl]azetidin-2-one]
[1]; [2]
  inhibition in vivo at 0.1 mg/kg: ≥ 50%
[1]; [3]
  inhibition in vivo at 0.1 mg/kg: ≥ 20%
Caco-2 cells
  inhibition at 10 µM: ≥ 50%

## N#Cc1cncc(-c2ccc(N3C(=O)[C@H](SC[C@H](O)c4ccc(Cl)cc4)[C@H]3c3ccc(O)cc3)cc2)c1 [Example 58, 5-(4-{(3R,4R)-3-[(2R)-2-(4-chlorophenyl)-2-hydroxyethylthio]-4-(4-hydroxyphenyl)-2-oxoazetidinyl}phenyl)pyridine-3-carbonitrile]
[1]; [4]
  inhibition in vivo at 0.01 mg/kg: ≥ 30%
[1]; [5]
  inhibition in vivo at 0.01 mg/kg: ≥ 30%
[1]; [3]
  inhibition in vivo at 0.1 mg/kg: ≥ 20%
Caco-2 cells
  inhibition at 10 µM: ≥ 50%
  inhibition at 12.5 µM: ≥ 60%

## O=C1[C@H](SC[C@H](O)c2ccc(F)cc2)[C@@H](c2ccc(O)cc2)N1c1ccc(-c2ccncc2Cl)cc1 [Example 12, (3R,4R)-3-[(2R)-2-(4-fluorophenyl)-2-hydroxyethylthio]-1-[4-(3-chloropyridin-4-yl)phenyl]-4-(4-hydroxyphenyl)azetidin-2-one]
[1]; [5]
  inhibition in vivo at 0.1 mg/kg: ≥ 50%
Caco-2 cells
  inhibition at 10 µM: ≥ 50%

## O=C1[C@H](SC[C@H](O)c2ccc(F)cc2Cl)[C@@H](c2ccc(O)cc2)N1c1ccc(-c2cccnc2)cc1 [Example 90, (3R,4R)-3-[(2R)-2-(2-chloro-4-fluorophenyl)-2-hydroxyethylthio]-4-(4-hydroxyphenyl)-1-[4-(pyridin-3-yl)phenyl]azetidin-2-one]
[1]; [5]
  inhibition in vivo at 0.1 mg/kg: ≥ 50%
[1]; [2]
  inhibition in vivo at 0.1 mg/kg: ≥ 50%
Caco-2 cells
  inhibition at 12.5 µM: ≥ 60%

## O=C1[C@H](SC[C@H](O)c2ccc(Cl)c(F)c2)[C@@H](c2ccc(O)cc2)N1c1ccc(-c2cccnc2)cc1 [Example 81, (3R,4R)-3-[(2R)-2-(4-chloro-3-fluorophenyl)-2-hydroxyethylthio]-4-(4-hydroxyphenyl)-1-[4-(pyridin-3-yl)phenyl]azetidin-2-one]
[1]; [5]
  inhibition in vivo at 0.1 mg/kg: ≥ 50%
[1]; [2]
  inhibition in vivo at 0.1 mg/kg: ≥ 50%
Caco-2 cells
  inhibition at 12.5 µM: ≥ 60%

## Cc1ccc([C@@H](O)CS[C@H]2C(=O)N(c3ccc(-c4cccnc4)cc3)[C@@H]2c2ccc(O)cc2)cc1 [Example 45, (3R,4R)-3-[(2R)-2-hydroxy-2-(4-methylphenyl)ethylthio]-4-(4-hydroxyphenyl)-1-[4-(pyridin-3-yl)phenyl]azetidin-2-one]
[1]; [5]
  inhibition in vivo at 0.1 mg/kg: ≥ 50%
[1]; [2]
  inhibition in vivo at 0.1 mg/kg: ≥ 50%
Caco-2 cells
  inhibition at 10 µM: ≥ 50%
  inhibition at 12.5 µM: ≥ 60%

## O=C1[C@H](SC[C@H](O)c2ccc(F)cc2)[C@@H](c2ccc(O)cc2)N1c1ccc(-c2cncc(Cl)c2)cc1 [Example 56, (3R,4R)-3-[(2R)-2-(4-fluorophenyl)-2-hydroxyethylthio]-1-[4-(5-chloropyridin-3-yl)phenyl]-4-(4-hydroxyphenyl)azetidin-2-one]
[1]; [4]
  inhibition in vivo at 0.01 mg/kg: ≥ 30%
  inhibition in vivo at 0.1 mg/kg: ≥ 50%
[1]; [5]
  inhibition in vivo at 0.01 mg/kg: ≥ 30%
[1]; [2]
  inhibition in vivo at 0.01 mg/kg: ≥ 30%
Caco-2 cells
  inhibition at 10 µM: ≥ 50%

## COc1ccncc1-c1ccc(N2C(=O)[C@H](SC[C@H](O)c3ccc(F)cc3)[C@H]2c2ccc(O)cc2)cc1 [Example 16, (3R,4R)-3-[(2R)-2-(4-fluorophenyl)-2-hydroxyethylthio]-4-(4-hydroxyphenyl)-1-[4-(4-methoxypyridin-3-yl)phenyl]azetidin-2-one]
[1]; [4]
  inhibition in vivo at 0.01 mg/kg: ≥ 30%
[1]; [2]
  inhibition in vivo at 0.1 mg/kg: ≥ 50%
Caco-2 cells
  inhibition at 10 µM: ≥ 50%
  inhibition at 12.5 µM: ≥ 60%

## O=C1[C@H](SC[C@H](O)c2ccc(Cl)c(Cl)c2)[C@@H](c2ccc(O)cc2)N1c1ccc(-c2cccnc2)cc1 [Example 28, (3R,4R)-3-[(2R)-2-(3,4-dichlorophenyl)-2-hydroxyethylthio]-4-(4-hydroxyphenyl)-1-[4-(pyridin-3-yl)phenyl]azetidin-2-one]
[1]; [4]
  inhibition in vivo at 0.1 mg/kg: ≥ 50%
[1]; [2]
  inhibition in vivo at 0.1 mg/kg: ≥ 50%
Caco-2 cells
  inhibition at 10 µM: ≥ 50%

## O=C1[C@H](SC[C@H](O)c2ccc(Cl)cc2)[C@@H](c2ccc(O)cc2)N1c1ccc(-c2cncc(C(F)(F)F)c2)cc1 [Example 86, (3R,4R)-3-[(2R)-2-(4-chlorophenyl)-2-hydroxyethylthio]-4-(4-hydroxyphenyl)-1-[4-(5-trifluoromethylpyridin-3-yl)phenyl]azetidin-2-one]
[1]; [5]
  inhibition in vivo at 0.01 mg/kg: ≥ 30%
Caco-2 cells
  inhibition at 12.5 µM: ≥ 60%

## Cc1ccc(-c2ccc(N3C(=O)[C@H](SC[C@H](O)c4ccc(F)cc4)[C@H]3c3ccc(O)cc3)cc2)cn1 [Example 20, (3R,4R)-3-[(2R)-2-(4-fluorophenyl)-2-hydroxyethylthio]-4-(4-hydroxyphenyl)-1-[4-(6-methylpyridin-3-yl)phenyl]azetidin-2-one]
[1]; [4]
  inhibition in vivo at 0.01 mg/kg: ≥ 30%
[1]; [5]
  inhibition in vivo at 0.01 mg/kg: ≥ 30%
Caco-2 cells
  inhibition at 10 µM: ≥ 50%
  inhibition at 12.5 µM: ≥ 60%

## Cc1cc(O)ccc1[C@@H]1[C@@H](SC[C@H](O)c2ccc(F)cc2)C(=O)N1c1ccc(-c2cccnc2)cc1 [Example 38, (3R,4R)-3-[(2R)-2-(4-fluorophenyl)-2-hydroxyethylthio]-4-(4-hydroxy-2-methylphenyl)-1-[4-(pyridin-3-yl)phenyl]azetidin-2-one]
[1]; [5]
  inhibition in vivo at 0.01 mg/kg: ≥ 30%
  inhibition in vivo at 0.1 mg/kg: ≥ 50%
[1]; [2]
  inhibition in vivo at 0.1 mg/kg: ≥ 50%
Caco-2 cells
  inhibition at 10 µM: ≥ 50%

## O=C1[C@H](SC[C@H](O)c2ccc3c(c2)OCCO3)[C@@H](c2ccc(O)cc2)N1c1ccc(-c2cccnc2)cc1 [Example 29, (3R,4R)-3-[(2R)-2-(2H,3H-benzo[3,4-e]1,4-dioxin-6-yl)-2-hydroxyethylthio]-4-(4-hydroxyphenyl)-1-[4-(pyridin-3-yl)phenyl]azetidin-2-one]
Caco-2 cells
  inhibition at 10 µM: ≥ 50%

## O=C1[C@H](SC[C@H](O)c2ccc(F)cc2)[C@@H](c2ccc(O)cc2)N1c1ccc(-c2cccnc2)c(F)c1 [Example 36, (3R,4R)-3-[(2R)-2-(4-fluorophenyl)-2-hydroxyethylthio]-1-[3-fluoro-4-(pyridin-3-yl)phenyl]-4-(4-hydroxyphenyl)azetidin-2-one]
Caco-2 cells
  inhibition at 10 µM: ≥ 50%

## O=C1[C@H](SC[C@H](O)c2ccc(F)cc2)[C@@H](c2ccc(O)c(O)c2)N1c1ccc(-c2cccnc2)cc1 [Example 37, (3R,4R)-3-[(2R)-2-(4-fluorophenyl)-2-hydroxyethylthio]-4-(3,4-dihydroxyphenyl)-1-[4-(pyridin-3-yl)phenyl]azetidin-2-one]
Caco-2 cells
  inhibition at 10 µM: ≥ 50%

## O=C1[C@H](SC[C@H](O)c2ccc(F)cc2)[C@@H](c2ccc(O)cc2)N1c1ccc(-c2cccnc2)cc1 [Example 1, (3R,4R)-3-[(2R)-2-(4-fluorophenyl)-2-hydroxyethylthio]-4-(4-hydroxyphenyl)-1[4-(pyridin-3-yl)phenyl]azetidin-2-one]
Caco-2 cells
  inhibition at 12.5 µM: ≥ 60%

## COc1ccc(CS[C@H]2C(=O)N(c3ccc(-c4cccnc4)cc3)[C@@H]2c2ccc(O)cc2)cc1 [Example 19, (3R,4R)-4-(4-hydroxyphenyl)-3-[(4-methoxyphenyl)methylthio]-1-[4-(pyridin-3-yl)phenyl]azetidin-2-one]
Caco-2 cells
  inhibition at 10 µM: ≥ 50%

## Cc1cc(N2C(=O)[C@H](SC[C@H](O)c3ccc(F)cc3)[C@H]2c2ccc(O)cc2)ccc1-c1cccnc1 [Example 47, (3R,4R)-3-[(2R)-2-(4-fluorophenyl)-2-hydroxyethylthio]-4-(4-hydroxyphenyl)-1-[3-methyl-4-(pyridin-3-yl)phenyl]azetidin-2-one]
Caco-2 cells
  inhibition at 10 µM: ≥ 50%

## O=C1[C@H](SC[C@H](O)c2ccc(F)cc2)[C@@H](c2ccc(O)cc2)N1c1ccc(-c2cccnc2F)cc1 [Example 21, (3R,4R)-3-[(2R)-2-(4-fluorophenyl)-2-hydroxyethylthio]-1-[4-(2-fluoropyridin-3-yl)phenyl]-4-(4-hydroxyphenyl)azetidin-2-one]
Caco-2 cells
  inhibition at 10 µM: ≥ 50%
